According to PubChem BioAssay AID1259407 (Chemical Carcinogenesis Research Information System (CCRIS), 2018):
The source made the active and inactive calls. No rule for the calls is given here.

System: CCRIS mutagenicity, Ames/micronucleus/aberration tests
Assay: CCRIS mutagenicity studies
[1] = Test System: AMES SALMONELLA TYPHIMURIUM, Strain/Indicator: TA98, Metabolic Activation: NONE, Method: PREINCUBATION
[2] = Test System: AMES SALMONELLA TYPHIMURIUM, Strain/Indicator: TA100, Metabolic Activation: NONE, Method: PREINCUBATION
[3] = Test System: AMES SALMONELLA TYPHIMURIUM, Strain/Indicator: TA1535, Metabolic Activation: NONE, Method: PREINCUBATION
[4] = Test System: AMES SALMONELLA TYPHIMURIUM, Strain/Indicator: TA1537, Metabolic Activation: NONE, Method: PREINCUBATION
[5] = Test System: AMES SALMONELLA TYPHIMURIUM, Strain/Indicator: TA100, Metabolic Activation: NONE, Method: STANDARD PLATE
[6] = Test System: AMES SALMONELLA TYPHIMURIUM, Strain/Indicator: TA98, Metabolic Activation: NONE, Method: STANDARD PLATE
[7] = Test System: AMES SALMONELLA TYPHIMURIUM, Strain/Indicator: TA98, Metabolic Activation: RAT, LIVER, S-9, AROCLOR 1254, Method: STANDARD PLATE
[8] = Test System: AMES SALMONELLA TYPHIMURIUM, Strain/Indicator: TA100, Metabolic Activation: RAT, LIVER, S-9, AROCLOR 1254, Method: STANDARD PLATE

Compound: C=C(C)C(=O)OC(C)C
- mutagenic call (Test System: AMES SALMONELLA TYPHIMURIUM, Strain/Indicator: TA98, Metabolic Activation: HAMSTER, LIVER, S-9, AROCLOR 1254 (10%), Method: PREINCUBATION): inactive; negative
- mutagenic call [1]: inactive; negative
- mutagenic call (Test System: AMES SALMONELLA TYPHIMURIUM, Strain/Indicator: TA98, Metabolic Activation: RAT, LIVER, S-9, AROCLOR 1254 (10%), Method: PREINCUBATION): inactive; negative
- mutagenic call (Test System: AMES SALMONELLA TYPHIMURIUM, Strain/Indicator: TA100, Metabolic Activation: HAMSTER, LIVER, S-9, AROCLOR 1254 (10%), Method: PREINCUBATION): inactive; negative
- mutagenic call [2]: inactive; negative
- mutagenic call (Test System: AMES SALMONELLA TYPHIMURIUM, Strain/Indicator: TA100, Metabolic Activation: RAT, LIVER, S-9, AROCLOR 1254 (10%), Method: PREINCUBATION): inactive; negative
- mutagenic call (Test System: AMES SALMONELLA TYPHIMURIUM, Strain/Indicator: TA1535, Metabolic Activation: HAMSTER, LIVER, S-9, AROCLOR 1254 (10%), Method: PREINCUBATION): inactive; negative
- mutagenic call [3]: inactive; negative
- mutagenic call (Test System: AMES SALMONELLA TYPHIMURIUM, Strain/Indicator: TA1535, Metabolic Activation: RAT, LIVER, S-9, AROCLOR 1254 (10%), Method: PREINCUBATION): inactive; negative
- mutagenic call (Test System: AMES SALMONELLA TYPHIMURIUM, Strain/Indicator: TA1537, Metabolic Activation: HAMSTER, LIVER, S-9, AROCLOR 1254 (10%), Method: PREINCUBATION): inactive; negative
- mutagenic call [4]: inactive; negative
- mutagenic call (Test System: AMES SALMONELLA TYPHIMURIUM, Strain/Indicator: TA1537, Metabolic Activation: RAT, LIVER, S-9, AROCLOR 1254 (10%), Method: PREINCUBATION): inactive; negative

Compound: O=C(ON(OCc1ccccc1)C(=O)c1ccccc1)c1ccc(Cl)cc1
- mutagenic call [5]: active; positive
- mutagenic call (Test System: AMES SALMONELLA TYPHIMURIUM, Strain/Indicator: TA100, Metabolic Activation: RAT, S-9, AROCLOR, Method: STANDARD PLATE): active; positive

Compound: Cn1cc2ccc([N+](=O)[O-])cc2n1
- mutagenic call [6]: active; positive

Compound: O=C(O)CCC(=O)Nc1cc(Cl)cc(Cl)c1
- mutagenic call [6]: inactive; negative
- mutagenic call [7]: inactive; negative
- mutagenic call [5]: inactive; negative
- mutagenic call [8]: inactive; negative

Compound: CN1C(=O)C(O)CC1c1cccnc1 (stereo not drawn)
- mutagenic call [1]: inactive; negative
- mutagenic call (Test System: AMES SALMONELLA TYPHIMURIUM, Strain/Indicator: TA98, Metabolic Activation: RAT, LIVER, S-9, AROCLOR 1254 (5%), Method: PREINCUBATION): inactive; negative
- mutagenic call [2]: inactive; negative
- mutagenic call (Test System: AMES SALMONELLA TYPHIMURIUM, Strain/Indicator: TA100, Metabolic Activation: RAT, LIVER, S-9, AROCLOR 1254 (5%), Method: PREINCUBATION): inactive; negative
- mutagenic call [3]: inactive; negative
- mutagenic call (Test System: AMES SALMONELLA TYPHIMURIUM, Strain/Indicator: TA1535, Metabolic Activation: RAT, LIVER, S-9, AROCLOR 1254 (5%), Method: PREINCUBATION): inactive; negative
- mutagenic call [4]: inactive; negative
- mutagenic call (Test System: AMES SALMONELLA TYPHIMURIUM, Strain/Indicator: TA1537, Metabolic Activation: RAT, LIVER, S-9, AROCLOR 1254 (5%), Method: PREINCUBATION): inactive; negative
- mutagenic call (Test System: AMES SALMONELLA TYPHIMURIUM, Strain/Indicator: TA1538, Metabolic Activation: NONE, Method: PREINCUBATION): inactive; negative
- mutagenic call (Test System: AMES SALMONELLA TYPHIMURIUM, Strain/Indicator: TA1538, Metabolic Activation: RAT, LIVER, S-9, AROCLOR 1254 (5%), Method: PREINCUBATION): inactive; negative

Compound: CCN(CC)CC(O)CNc1c2ccc([N+](=O)[O-])cc2nc2cc(OC)c(OC)cc12 (stereo not drawn)
- mutagenic call (Test System: Escherichia coli, Strain/Indicator: CC107 (G6 to B7 frameshifts), Metabolic Activation: None, Method: Modified preincubation): active; positive
- mutagenic call (Test System: Escherichia coli, Strain/Indicator: CC108 (G6 to G5 frameshifts), Metabolic Activation: None, Method: Modified preincubation): active; positive
- mutagenic call (Test System: Escherichia coli, Strain/Indicator: CC109 (CG5 to CG4 frameshifts), Metabolic Activation: None, Method: Modified preincubation): active; positive
- mutagenic call (Test System: Escherichia coli, Strain/Indicator: CC111 (A7 to A6 frameshifts), Metabolic Activation: None, Method: Modified preincubation): inactive; negative

Compound: OC[C@H](Cc1cccc(O)c1)[C@H](CO)Cc1cccc(O)c1
- mutagenic call (Test System: CHINESE HAMSTER V79 CELLS, Strain/Indicator: V79 CELLS (HPRT)/6-THIOGUANINE, Metabolic Activation: NONE, Method: SUSPENSION/PLATE): inactive; negative
- mutagenic call (Test System: CHINESE HAMSTER V-79, Strain/Indicator: V-79 (HPRT)/6-THIOGUANINE, Metabolic Activation: NONE): inactive; negative

Compound: [O-][Cl+]O
- mutagenic call (End Point: IN VIVO MICRONUCLEUS, Test System: BONE MARROW POLYCHROMATIC ERYTHROCYTES, Species: MOUSE, Strain/Sex: DDY/MALE, Route: ORAL): inactive; negative; significant increase at 150 mg/kg
- mutagenic call (Test System: AMES SALMONELLA TYPHIMURIUM, Strain/Indicator: TA97, Metabolic Activation: NONE, Method: PREINCUBATION): inactive; negative
- mutagenic call (Test System: AMES SALMONELLA TYPHIMURIUM, Strain/Indicator: TA97, Metabolic Activation: RAT, LIVER, S-9, AROCLOR 1254, Method: PREINCUBATION): inactive; negative
- mutagenic call (Test System: AMES SALMONELLA TYPHIMURIUM, Strain/Indicator: TA102, Metabolic Activation: NONE, Method: PREINCUBATION): inactive; negative
- mutagenic call (Test System: AMES SALMONELLA TYPHIMURIUM, Strain/Indicator: TA102, Metabolic Activation: RAT, LIVER, S-9, AROCLOR 1254, Method: PREINCUBATION): inactive; negative

Compound: Cc1ccc(NS(=O)(=O)c2cccc3cccnc23)cc1
- mutagenic call [6]: inactive; negative
- mutagenic call [7]: inactive; negative
- mutagenic call [5]: inactive; negative
- mutagenic call [8]: inactive; negative
- mutagenic call (Test System: AMES SALMONELLA TYPHIMURIUM, Strain/Indicator: TA1535, Metabolic Activation: NONE, Method: STANDARD PLATE): inactive; negative
- mutagenic call (Test System: AMES SALMONELLA TYPHIMURIUM, Strain/Indicator: TA1535, Metabolic Activation: RAT, LIVER, S-9, AROCLOR 1254, Method: STANDARD PLATE): inactive; negative
- mutagenic call (Test System: AMES SALMONELLA TYPHIMURIUM, Strain/Indicator: TA1537, Metabolic Activation: NONE, Method: STANDARD PLATE): inactive; negative
- mutagenic call (Test System: AMES SALMONELLA TYPHIMURIUM, Strain/Indicator: TA1537, Metabolic Activation: RAT, LIVER, S-9, AROCLOR 1254, Method: STANDARD PLATE): inactive; negative

Compound: CC(=O)Nc1ccc2c(=O)c(=O)c3cccc4ccc1c2c43
- mutagenic call (Test System: AMES SALMONELLA TYPHIMURIUM, Strain/Indicator: TA98(1,8-DNP6), Metabolic Activation: NONE, Method: STANDARD PLATE): inactive; negative
- mutagenic call (Test System: AMES SALMONELLA TYPHIMURIUM, Strain/Indicator: TA98(1,8-DNP6), Metabolic Activation: RAT, LIVER, S-9, AROCLOR 1254, Method: STANDARD PLATE): active; positive
- mutagenic call [6]: inactive; negative
- mutagenic call [7]: active; positive
- mutagenic call (Test System: AMES SALMONELLA TYPHIMURIUM, Strain/Indicator: YG1024, Metabolic Activation: NONE, Method: STANDARD PLATE): inactive; negative
- mutagenic call (Test System: AMES SALMONELLA TYPHIMURIUM, Strain/Indicator: YG1024, Metabolic Activation: RAT, LIVER, S-9, AROCLOR 1254, Method: STANDARD PLATE): active; positive

Compound: CCc1cccc(CC)c1NC(=O)CCl
- mutagenic call [1]: inactive; negative
- mutagenic call (Test System: AMES SALMONELLA TYPHIMURIUM, Strain/Indicator: TA98, Metabolic Activation: RAT, LIVER, MICROSOMES, PHENOBARBITAL, Method: PREINCUBATION): inactive; negative
- mutagenic call [2]: active; positive
- mutagenic call (Test System: AMES SALMONELLA TYPHIMURIUM, Strain/Indicator: TA100, Metabolic Activation: RAT, LIVER, MICROSOMES, PHENOBARBITAL, Method: PREINCUBATION): active; positive
